Data as given in US12655116B2, “Substituted isophthalic acid diamides” (Bayer Aktiengesellschaft, priority 2020, dated 2026).

How the values were obtained:
MATIN [1] = experiment: Post-emergence herbicidal action against MATIN; type: in vivo, Matricaria inodora
Outline: (§1)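 Visual % rating (0% = as untreated, 100% = dead) ~3 wk after spraying one-leaf-stage plants grown in sandy loam; WP/EC in water at 600–800 l/ha, 0.2% wetting agent.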

ABUTH [2] = experiment: Pre-emergence herbicidal action against ABUTH; type: in vivo, Abutilon theophrasti
Outline: (§2)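 Sandy loam pots, seeds covered with soil, then surface-treated with WP or EC formulations at 600–800 l/ha water plus 0.2% wetting agent. Greenhouse, 3 weeks. Percent damage vs untreated controls.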

PHBPU = experiment: Post-emergence herbicidal action against PHBPU; type: in vivo, Pharbitis purpurea; settings: Ipomoea purpurea, 504 h
Outline: as §1

HORMU = experiment: Pre-emergence herbicidal action against HORMU; type: in vivo, Hordeum murinum; settings: 80 g/ha, pre-emergence
Description: Seeds of monocotyledonous and dicotyledonous weed plants and crop plants are laid out in sandy loam soil in wood-fiber pots and covered with soil. The compounds of the invention, formulated in the form of wettable powders (WP) or as emulsion concentrates (EC), are then applied to the surface of the covering soil in the form of an aqueous suspension or emulsion at a water application rate equivalent to 600 to 800 l/ha, with addition of 0.2% wetting agent. After the treatment, the pots are placed in a greenhouse and kept under good growth conditions for the trial plants. The damage to the test plants is scored visually after a test period of 3 weeks by comparison with untreated controls (herbicidal activity in percent (%): 100% activity=the plants have died, 0% activity=like control plants). […] The tables below illustrate, in an illustrative manner, the post-emergence herbicidal action of the compounds of the invention, the herbicidal activity being stated in percent.

POLCO = experiment: Pre-emergence herbicidal action against POLCO; type: in vivo, Polygonum convolvulus; settings: Fallopia convolvulus, 504 h
Outline: as §2

VIOTR [3] = experiment: Pre-emergence herbicidal action against VIOTR; type: in vivo, Viola tricolor
Outline: as §2

MATIN [4] = experiment: Pre-emergence herbicidal action against MATIN; type: in vivo, Matricaria inodora
Outline: as §2

VIOTR [5] = experiment: Post-emergence herbicidal action against VIOTR; type: in vivo, Viola tricolor; settings: 20 g/ha
Outline: as §1

ALOMY [6] = experiment: Post-emergence herbicidal action against ALOMY; type: in vivo, Alopecurus myosuroides; settings: dosage 20 g/ha, visual assessment about 3 weeks after treatment vs untreated controls
Outline: as §1

STEME [7] = experiment: Pre-emergence herbicidal action against STEME; type: in vivo, Stellaria media
Outline: as §2

AMARE [8] = experiment: Post-emergence herbicidal action against AMARE; type: in vivo, Amaranthus retroflexus; settings: 20 g/ha, visual assessment about 3 weeks after treatment, 100% = plants have died, 0% = like control plants
Outline: as §1

AMARE [9] = experiment: Pre-emergence herbicidal action against AMARE; type: in vivo, Amaranthus retroflexus
Outline: as §2

STEME [10] = experiment: Post-emergence herbicidal action against STEME; type: in vivo, Stellaria media
Outline: as §1

ABUTH [11] = experiment: Post-emergence herbicidal action against ABUTH; type: in vivo, Abutilon theophrasti; settings: visual assessment about 3 weeks after treatment vs untreated controls
Outline: as §1

AVEFA = experiment: Pre-emergence herbicidal action against AVEFA; type: in vivo, Avena fatua; settings: pre-emergence
Outline: as §2

DIGSA [12] = experiment: Pre-emergence herbicidal action against DIGSA; type: in vivo, Digitaria sanguinalis; settings: dosage 80 g/ha
Outline: as §2

ALOMY [13] = experiment: Pre-emergence herbicidal action against ALOMY; type: in vivo, Alopecurus myosuroides; settings: 80 g/ha, pre-emergence, scored visually after 3 weeks vs untreated controls (100% = plants have died, 0% = like control plants)
Outline: as §2

DIGSA [14] = experiment: Post-emergence herbicidal action against DIGSA; type: in vivo, Digitaria sanguinalis; settings: 20 g/ha
Outline: as §1

SETVI [15] = experiment: Post-emergence herbicidal action against SETVI; type: in vivo, Setaria viridis
Outline: as §1

ECHCG [16] = experiment: Pre-emergence herbicidal action against ECHCG; type: in vivo, Echinochloa crus-galli
Outline: as §2

SETVI [17] = experiment: Pre-emergence herbicidal action against SETVI; type: in vivo, Setaria viridis
Outline: as §2

ECHCG [18] = experiment: Post-emergence herbicidal action against ECHCG; type: in vivo, Echinochloa crus-galli; settings: dosage 20 g/ha
Outline: as §1

[19] = Tripleurospermum inodorum, 504 h, dosage 20 g/ha
[20] = 80 g/ha, scored visually after 3 weeks vs untreated controls (100% = plants have died, 0% = like control plants)

CCCn1nnnc1NC(=O)c1ccc(C(F)(F)F)c(C(=O)NCC)c1C [Example 3-26]
90%: pest or weed control at 5 g/ha (MATIN [1]; Tripleurospermum inodorum, 504 h, dosage 5 g/ha) | pest or weed control at 20 g/ha (MATIN [1]; [19]) | pest or weed control at 20 g/ha (PHBPU; dosage 20 g/ha) | pest or weed control at 80 g/ha (POLCO; dosage 80 g/ha) | pest or weed control at 20 g/ha (MATIN [4]; [19]) | pest or weed control at 20 g/ha (VIOTR [5]; Viola tricolor, 504 h) | pest or weed control at 20 g/ha (AMARE [8]; Amaranthus retroflexus, 504 h) | pest or weed control at 20 g/ha (STEME [10]; Stellaria media, 504 h, 20 g/ha) | pest or weed control at 20 g/ha (ABUTH [11]; Abutilon theophrasti, 504 h, dosage 20 g/ha)
100%: pest or weed control at 80 g/ha (ABUTH [2]; Abutilon theophrasti, 504 h, 80 g/ha, scored visually after 3 weeks vs untreated controls (100% = plants have died, 0% = like control plants)) | pest or weed control at 20 g/ha (ABUTH [2]; Abutilon theophrasti, 504 h, dosage 20 g/ha, scored visually after 3 weeks vs untreated controls, 100% = plants have died, 0% = like control plants, read-out: Pre-emergence action against ABUTH (herbicidal activity in percent)) | pest or weed control at 20 g/ha (VIOTR [3]; Viola tricolor, 504 h, dosage 20 g/ha) | pest or weed control at 80 g/ha (VIOTR [3]; Viola tricolor, 504 h, dosage 80 g/ha) | pest or weed control at 80 g/ha (MATIN [4]; Tripleurospermum inodorum, 504 h, dosage 80 g/ha) | pest or weed control at 80 g/ha (STEME [7]; Stellaria media, 504 h, dosage 80 g/ha) | pest or weed control at 20 g/ha (AMARE [9]; Amaranthus retroflexus, 504 h, 20 g/ha, scored visually after 3 weeks vs untreated controls, 100% = plants have died, 0% = like control plants) | pest or weed control at 80 g/ha (AMARE [9]; Amaranthus retroflexus, 504 h, 80 g/ha, scored visually after 3 weeks vs untreated controls, 100% = plants have died, 0% = like control plants) | pest or weed control at 80 g/ha (AVEFA; Avena fatua, 504 h, 80 g/ha) | pest or weed control at 80 g/ha (DIGSA [12]; Digitaria sanguinalis, 504 h)
80%: pest or weed control at 5 g/ha (PHBPU; dosage 5 g/ha) | pest or weed control at 80 g/ha (HORMU; Hordeum murinum, 504 h) | pest or weed control at 20 g/ha (POLCO; dosage 20 g/ha) | pest or weed control at 20 g/ha (ALOMY [6]; Alopecurus myosuroides, 504 h) | pest or weed control at 20 g/ha (STEME [7]; Stellaria media, 504 h, dosage 20 g/ha) | pest or weed control at 5 g/ha (ABUTH [11]; Abutilon theophrasti, 504 h, dosage 5 g/ha) | pest or weed control at 20 g/ha (AVEFA; Avena fatua, 504 h, 20 g/ha, scored visually after 3 weeks, 100% = plants have died, 0% = like control plants) | pest or weed control at 80 g/ha (ALOMY [13]; Alopecurus myosuroides, 504 h)

Cc1nnc(NC(=O)c2ccc(C(F)F)c(C(=O)NC3CC3)c2Cl)o1 [Example 6-124]
80%: Post-emergence action against MATIN in % (MATIN [1]; dosage 20 g/ha) | Pre-emergence action against HORMU in % (HORMU) | Pre-emergence action against STEME in % (STEME [7]; dosage 20 g/ha) | Post-emergence action against SETVI in % (SETVI [15]; dosage 5 g/ha) | Pre-emergence action against ECHCG in % (ECHCG [16]; 20 g/ha) | Post-emergence action against ABUTH in % (ABUTH [11]; dosage 5 g/ha) | Post-emergence action against ABUTH in % (ABUTH [11]; dosage 20 g/ha) | Pre-emergence action against SETVI in % (SETVI [17]; dosage 20 g/ha) | Post-emergence action against ECHCG in % (ECHCG [18])
100%: Pre-emergence action against ABUTH (herbicidal activity) (ABUTH [2]; [20]) | Pre-emergence action against ABUTH (herbicidal activity in percent) (ABUTH [2]; dosage 20 g/ha, scored visually after 3 weeks vs untreated controls, 100% = plants have died, 0% = like control plants) | Pre-emergence action against VIOTR in % (VIOTR [3]; dosage 80 g/ha) | Pre-emergence action against MATIN in % (MATIN [4]; dosage 80 g/ha) | Post-emergence action against VIOTR in % (VIOTR [5]) | Post-emergence action at 20 g/ha against AMARE in % (AMARE [8]) | Pre-emergence action against AMARE in % (AMARE [9]; 20 g/ha, scored visually after 3 weeks vs untreated controls, 100% = plants have died, 0% = like control plants) | Pre-emergence action against AMARE in % (AMARE [9]; [20]) | Pre-emergence action against ECHCG in % (ECHCG [16]; 80 g/ha) | Pre-emergence action against DIGSA in % (DIGSA [12]) | Pre-emergence action against SETVI in % (SETVI [17]; dosage 80 g/ha)
90%: Post-emergence action against DIGSA (DIGSA [14]) | Pre-emergence action against MATIN in % (MATIN [4]; dosage 20 g/ha) | Post-emergence action against ALOMY in % (ALOMY [6]) | Pre-emergence action against STEME in % (STEME [7]; dosage 80 g/ha) | Post-emergence action against SETVI in % (SETVI [15]; dosage 20 g/ha) | Post-emergence action against STEME in % (STEME [10]; 20 g/ha) | Post-emergence action against STEME in % (STEME [10]; dosage 5 g/ha) | Pre-emergence action against AVEFA in % (AVEFA; 80 g/ha) | Pre-emergence action against ALOMY (herbicidal activity) (ALOMY [13])
